Experimental data taken from patent publication EP2147913A1, “Styrylquinolines, their process of preparation and their therapeutic uses” (BioAlliance Pharma, priority 2008, dated 2010).
Where two headings read alike, the source gives them in different places.

Experiments:
[1] = Viability assay (MTT cytotoxicity); format: cell-based; conditions: human; for CC50 at 48 h: hela-p4 cells, 2 days
Protocol: The cytotoxicity of compounds was evaluated using un-infected and infected HeLa-P4 cell and CEM leukemia cells. CEM cell were obtained from the American Type Tissue Collection (Rockville, MD).
A serial dilution of drugs is done to evaluate the cytotoxicity concentration and is identified by CC50 (concentration of drug which induces 50% of cytotoxicity)
The HeLa-P4 was cultured in the presence or absence of compounds for 2 days. After this time period, cells were cultivated with MTT for 3 hours, further the medium is removed. And the lysis buffer is incubated for 1 hour, followed by plate reading at 540 nm in a microplate reader.

HBX2 HIV integrase [2] = biological target: T1, HBX2 HIV integrase (Human immunodeficiency virus type 1 group M subtype B, UniProt P04585); test: Strand Transfer Assay; format: biochemical
T1 construct: The pET-15b-IN plasmid contains the cDNA encoding the HBX2 HIV integrase; His tag (N, cleaved yes); made in house; host or cells: Escherichia coli BL21 (DE3)
Protocol: (§1) The pET-15b-IN plasmid contains the cDNA encoding the HBX2 HIV integrase. His-tagged integrase protein was overexpressed in Escherichia coli BL21 (DE3) and purified under native conditions. Briefly, at an OD of 0.8, fusion protein expression was induced in bacterial cultures by the addition of IPTG (1 mM). Cultures were incubated for 3 h at […], after which cells were centrifuged. The cell pellet was resuspended in ice-cold buffer A [20 mM Tris-HCl (pH 8), 1 M NaCl, 4 mM β-mercaptoethanol, and 5 mM imidazole], treated with lysozyme for 1 h on ice, and sonicated. After centrifugation (30 min at 10 000 rpm), the supernatant was filtered (0.45 µm) and incubated for at least 2 h with Ni-NTA agarose beads (Pharmacia). The beads were washed twice with 10 volumes of buffer A, 10 volumes of buffer A with 50 mM imidazole, and 10 volumes of buffer A with 100 mM imidazole. His-tagged integrase was then eluted with buffer A supplemented with 50 µM ZnSO4 and 1 M imidazole. The integrase concentration was adjusted to 0.1 mg/mL in buffer A. The fusion protein was cleaved using thrombin and dialyzed overnight against 20 mM Tris-HCl (pH 8), 1 M NaCl, and 4 mM β-mercaptoethanol. After removal of biotinylated thrombin by incubation with streptavidin-agarose magnetic beads (Novagen, Madison, WI), a second dialysis was performed for 2 h against 20 mM Tris-HCl (pH 8), 1 M NaCl, 4 mM β-mercaptoethanol, and 20% (v/v) ethylene glycol. Fractions were aliquoted and rapidly frozen at -80°C.
(§2) Oligonucleotides U5B (5'-[…]-3'), U5B-2 (5'-GTGTGGAAAATCTCTAGCA-3'), U5A (5'-[…]-3') were purchased from Eurogentec (Liege, Belgium) and further purified on an 18% denaturing acrylamide/urea gel. For processing, strand transfer, 100 pmol of U5B, U5B-2, respectively, were radiolabeled using T4 polynucleotide kinase and 50 µCi of [γ-32P]ATP (3000 Ci/mmol). […]
Processing, strand transfer reactions were performed using U5A-U5B-2, in buffer containing 20 mM Tris (pH 7.2), 50 mM NaCl, 10 mM DTT, 10mM MgCl2. […] Gels were analyzed using a STORM Molecular Dynamics phosphorimager and quantified with Image Quant™ 4.1 software.

HBX2 HIV integrase [3] = biological target: T1, HBX2 HIV integrase; test: 3' LTR Processing Assay; format: biochemical
Protocol: as §1, §2
Processing reaction was performed using U5A-U5B, in buffer containing 20 mM Tris (pH 7.2), 50 mM NaCl, 10 mM DTT, and 10mM MgCl2. […] Gels were analyzed using a STORM Molecular Dynamics phosphorimager and quantified with Image Quant™ 4.1 software.

[4] = tested on: wild type HIV-1 virus (NL 4.3 strains); test: Antiviral activity assay on Hela P4 cells; format: cell-based; conditions: Human immunodeficiency virus 1, HeLaP4, 48 h, read-out: P4 IC50 (µM)
Protocol: The antiviral activity is determined by infecting HelaP4 cells with a wild type HIV-1 virus (NL 4.3 strains at 3 ng) on cells in presence or absence of drugs.
A serial dilution of drugs is done to evaluate the EC50. The effective concentration is the concentration of product at which virus replication is inhibited by 50 percent.
After 48 hours incubation, the quantification is done by the evaluation of β-Galactosidase produced by the infected Hela P4 cells. The viral activity is evaluated by colorimetric assay, CPRG, followed by plate reading at 570 nm with a reference of 690 nm. The CPRG test is a colorimetric assay which allows to quantity the β-galactosidase produced by HIV-1 infected indicator cells (the β-Gal gene being under the control of the HIV-1 LTR).

[5] = tested on: wild type HIV-1 virus (NL 4.3 strains); test: Antiviral activity assay CEM cells; format: cell-based; conditions: Human immunodeficiency virus 1, CCRF-CEM
Protocol: The activity is determined by infecting CEM cells with a wild type HIV-1 virus (NL 4.3 strains at 3ng) on cells in presence or absence of drugs.
A serial dilution of drugs is done to evaluate the EC50.
The effective concentration is the concentration of product at which virus replication is inhibited by 50 percent.
After 48 hours incubation, the quantification is done by the evaluation of the viral protein p24 with a commercial Elisa Kit. P24 is a protein essential to the replication virus cycle. The quantification of this enzyme is proportional to the amount of virus produced by the infected cells.

[6] = U5A-U5B-2 substrate DNA 12.5 nM, IN 200nM, 10mM MgCl2, up to 2 h at 37°C, read-out: Transfert IC50
[7] = U5A-U5B substrate DNA 12.5 nM, IN 200 nM, 10mM MgCl2, up to 2 h at 37°C, read-out: Processing IC50

| SMILES | CC50 at 48 h ([1]; comparative example, read-out: Cytoto-IC50 IC50) [nM] | IC50 (HBX2 HIV integrase [2]) [nM] | IC50 (HBX2 HIV integrase [3]) [nM] | IC50 [4] [µM] | EC50 ([5]; CEM cells, NL 4.3, 48 hours, p24 Elisa, read-out: CEM) [µM] | IC50 at 2 days ([1]; HeLa-P4 cells) [nM] | IC50 (HBX2 HIV integrase [2]; [6]) [nM] | IC50 (HBX2 HIV integrase [3]; [7]) [nM] | EC50 ([5]; 48 h, read-out: CEM (µM)) [µM] | CC50 at 48 h ([1]; read-out: Cytotoxicity IC50) [nM] |
| --- | --- | --- | --- | --- | --- | --- | --- | --- | --- | --- |
| COc1cc(/C=C/c2ccc3ccc(C(=O)O)c(O)c3n2)cc(O)c1O [FZ41, reference compound] | > 100000 | – | – | – | – | – | – | – | – | – |
| O=C(O)c1ccc2ccc(/C=C/c3cc(O)c(O)c(Cl)c3)nc2c1O [SQE41, (E)-2-(3-chloro-4,5-dihydroxystyryl)-8-hydroxyquinoline-7-carboxylic acid] | – | 280 | 280 | 5 | 36 | 22500 | – | – | – | – |
| COc1cc(/C=C/c2ccc3ccc(Br)c(O)c3n2)cc(O)c1O [SQE63] | – | – | – | 0.82 | – | – | 950 | 950 | 2.8 | 11700 |
| O=C(O)c1ccc2ccc(/C=C/c3cc(O)c(O)c([N+](=O)[O-])c3)nc2c1O [SQE67] | – | – | – | 6.2 | – | – | 180 | 150 | 42 | 35000 |
